# In publication PMC1470342 (Environmental Health Perspectives, 1997):
# Assays:
# [1] = molecular target: T1, Gal4-human ER chimera (Gal4-HEGO) (Homo sapiens, UniProt P03372); test: Recombinant receptor/reporter gene assay; type: cell-based
# T1 sequence (P03372 311-547 limits assumed): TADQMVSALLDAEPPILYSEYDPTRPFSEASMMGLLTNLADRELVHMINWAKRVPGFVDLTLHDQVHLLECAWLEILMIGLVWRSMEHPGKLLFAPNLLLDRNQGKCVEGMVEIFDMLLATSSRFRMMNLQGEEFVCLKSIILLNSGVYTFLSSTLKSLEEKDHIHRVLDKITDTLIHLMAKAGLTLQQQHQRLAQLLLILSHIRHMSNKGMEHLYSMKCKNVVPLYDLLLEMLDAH
# MCF-7 cells = test: GC-MS analysis of media from PCB 104-treated transfected MCF-7 cells; conditions: MCF-7 cells incubated with PCB 104 for 8, 24, 48 hr; SIM GC-MS
# ovariectomized CD-1 mice [2] = test: Mouse uterotrophic assay; type: in vivo; conditions: 202 mg/kg, p < 0.0002
# ovariectomized CD-1 mice [3] = test: Vaginal cell cornification assay; type: in vivo, mouse; conditions: 202, 16 and 1.7 mg/kg
# [4] = co-treatment 1 nM E2 plus 0.1, 1, 10 pM (printed)
Compound,effect on E2-induced luciferase activity compared to E2 alone ([1]; co-treatment 1 nM E2 plus 10 pM (printed; 10 microM in abstract)),presence of metabolite HO-PCB 104 or hydroxylated isomers in media extracts (MCF-7 cells),uterine wet weight versus vehicle control (ovariectomized CD-1 mice [2]),"vaginal cell cornification, dose response (ovariectomized CD-1 mice [3])","effect on E2-induced luciferase activity compared to E2 alone [1, 4]","estrogenic activity in reporter gene assay ([1]; alone, 24 hr)"
"Oc1cc(Cl)c(-c2c(Cl)cc(Cl)cc2Cl)c(Cl)c1 [HO-PCB 104, 2,4,6,2',6'-pentachloro-4-biphenylol]",additivity,,,,,
"Clc1cc(Cl)c(-c2c(Cl)cccc2Cl)c(Cl)c1 [PCB 104, 2,4,6,2',6'-pentachlorobiphenyl]",,failed to detect,increased uterine wet weight,induced vaginal epithelial cell cornification,no effect,
"Clc1cc(Cl)c(-c2c(Cl)cc(Cl)cc2Cl)c(Cl)c1 [PCB 155, 2,4,6,2',4',6'-hexachlorobiphenyl]",,,,,significant antiestrogenic activity,minimal
